Source: ChEMBL document CHEMBL1138660, “Contribution of ionization and lipophilicity to drug binding to albumin: a preliminary step toward biodistribution prediction” (J Med Chem, 2004)

Experiments:
[1] = human, plasma
physchem [2] = settings: buffer, pH 7.4
Description: Distribution coeeficient for the compound at pH7.4 (Log D7.4)

physchem [3] = assay: physchem
Description: pKa value of the compound

Row | B(DPB) [1] [%] | logD (physchem [2]) | pKa (physchem [3]) | SMILES
1 | 0 | – | – | CCCC(=O)Nc1ccc(OCC(O)CNC(C)C)c(C(C)=O)c1 (centres undefined) [ACEBUTOLOL]
2 | 93.4 | 4.25 | 7.17 | COC(=O)C1=C(C)NC(C)=C(C(=O)OCCN(C)Cc2ccccc2)C1c1cccc([N+](=O)[O-])c1 (centres undefined) [NICARDIPINE]
3 | 87.2 | – | – | NS(=O)(=O)c1cc(C(=O)O)c(NCc2ccco2)cc1Cl [FUROSEMIDE]
4 | 3.9 | -0.48 | 8.48 | CNC(=C[N+](=O)[O-])NCCSCc1ccc(CN(C)C)o1 [RANITIDINE]
5 | 49.9 | -2.52 | – | CN(Cc1cnc2nc(N)nc(N)c2n1)c1ccc(C(=O)N[C@@H](CCC(=O)O)C(=O)O)cc1 [METHOTREXATE]
6 | 89.6 | -0.32 | 4.95 | CN1C(C(=O)Nc2ccccn2)=C(O)c2sccc2S1(=O)=O [TENOXICAM]
7 | > 95 | – | – | COc1ccc2cc([C@H](C)C(=O)O)ccc2c1 [NAPROXEN]
